Test results: patent US20180339053A1, “USE OF 1,2-DICARBOXYLIC ACID MONOAMIDE POLYMER AS SYNERGIST FOR CHEMOTHERAPY” (Nankai University, priority 2017, published 2018)
Several values for one entry are separate records, joined by “and”; a condition that tells them apart may be missing. Equal values may be shown once. Read-outs that look alike come from different tables or passages of the source.

How the values were obtained:
HepG2 cells = assay: Cytotoxicity experiment (MTS) of polymer and anti-cancer drug on HepG2 cells; assay type: cell-based, human; details: for viability at 4 µg/mL / viability at 5 µg/mL: Homo sapiens; for viability at 5 µg/mL: read-out: Cell Viability (%) Taxol
Protocol: (§1) A suspension of HepG2 cells diluted in 100 μL of a complete medium (a RPMI-1640 medium containing 10% fetal bovine serum and 1% penneillin/streptomycin) was added into a 96-well plate at a concentration of 5×10^3 cells per well, cultivated at 37 degrees Celsius for 24 hours. […] The solution was then aspirated, added with 100 μL of fresh complete medium and incubated continually for 24 hours. The culture medium was aspirated, added with 80 μL PBS solution and 20 μL cell proliferation reagent MTS, incubated at 37 degrees Celsius for 1 hour, and then measured with a microplate reader at 490 nm for absorbance.
(§2) This embodiment is an in vitro cell experiment of the effect of a polyallylamine-2,3-dimethyl maleic anhydride modifier with a molecular weight of 15,000 (PAA15K-DMA) for promoting the toxicity of different chemotherapeutic drugs on non-resistant HepG2 cells. According to the method described in Embodiment 4, the concentration of PAA15K-DMA was 25 μg/mL, and the obtained data was shown in Table 1.
as §2, with “polyallylamine-cyclohexene-1,2-dicarboxylic acid” for “polyallylamine-2,3-dimethyl maleic anhydride”, “200,000 (PAA200K-TPA)” for “15,000 (PAA15K-DMA)”, “PAA200K-TPA” for “PAA15K-DMA”, “Table 1 and FIG.” for “Table”
as §1, with “804” for “80 μL”
as §2, with “linear polyethylenimine-cyclohexene-1,2-dicarboxylic acid” for “polyallylamine-2,3-dimethyl maleic anhydride”, “10,000 (LPEI10K-TPA)” for “15,000 (PAA15K-DMA)”, “10,” for “4,”, “LPEI10K-TPA” for “PAA15K-DMA”, “15” for “25”
as §2, with “branched polyethyleneimine-1-methyl” for “polyallylamine-2,3-dimethyl”, “25,000 (BPEI25K-CA)” for “15,000 (PAA15K-DMA)”, “10,” for “4,”, “BPEI25K-CA” for “PAA15K-DMA”, “15” for “25”
(§3) This embodiment is an in vitro cell experiment of the effect of a 3rd-generation dendritic polypropyleneimine-3-carboxy-2-pentenedioic acid modifier (G3 PPI-AA) for promoting the toxicity of different chemotherapeutic drugs on non-resistant HepG2 cells. According to the method described in Embodiment 10, the concentration of G3 PPI-AA was 20 μg/mL, and the obtained data was shown in Table 1.
as §3, with “polypropyleneimine-2,3-dimethyl maleic anhydride” for “polypropyleneimine-3-carboxy-2-pentenedioic acid”, “PPI-DMA)” for “PPI-AA)”, “PPI-DMA” for “PPI-AA”, “1 and FIG. 3.” for “1.”
This embodiment is an in vitro cell experiment of the effect of a branched polylysine-cyclohexene-1,2-dicarboxylic acid modifier having a molecular weight of 2,000 (BPLys2K-TPA) for promoting the toxicity of different chemotherapeutic drugs on non-resistant HepG2 cells. […]

HepG2/ADR cells = assay: Cytotoxicity experiment (MTS) of polymer and anti-cancer drug on HepG2/ADR cells; assay type: cell-based; details: Homo sapiens, read-out: Cell Viability (%) Taxol
Protocol: as §1, with “HepG2/ADR” for “HepG2”, “2 hours,” for “1 hour,”
as §1, with “suspension of HepG2/ADR cells diluted” for “suspension of HepG2 cells diluted”, “in 100 IA of a” for “in 100 μL of a”, “Celsius for 2 hours, and then” for “Celsius for 1 hour, and then”, “for absorbance. […]” for “for absorbance.”

[1] = HepG2, pH = 6.5, 5 μg/mL taxol alone (control)
[2] = HepG2, pH = 7.4, 5 μg/mL taxol alone (control)

SMILES | viability at 4 µg/mL (HepG2 cells; HepG2, read-out: Cell Viability (%) Doxorubicin, pH = 6.5, 4 μg/mL doxorubicin alone (control)) | viability at 4 µg/mL (HepG2 cells; HepG2, read-out: Cell Viability (%) Doxorubicin, pH = 7.4, 4 μg/mL doxorubicin alone (control)) | Cell Viability (%) Doxorubicin (HepG2 cells; pH = 6.5, 4 μg/mL doxorubicin alone (control)) | Cell Viability (%) Doxorubicin (HepG2 cells; pH = 7.4, 4 μg/mL doxorubicin alone (control)) | viability at 5 µg/mL (HepG2 cells; [1]) | viability at 5 µg/mL (HepG2 cells; [2]) | Cell Viability (%) Taxol (HepG2 cells; pH = 6.5, 5 μg/mL taxol alone (control)) | Cell Viability (%) Taxol (HepG2 cells; pH = 7.4, 5 μg/mL taxol alone (control)) | viability at 5 µg/mL (HepG2/ADR cells; [1]) | viability at 5 µg/mL (HepG2/ADR cells; [2])
COc1cccc2c1C(=O)c1c(O)c3c(c(O)c1C2=O)C[C@@](O)(C(=O)CO)C[C@@H]3O[C@H]1C[C@H](N)[C@H](O)[C@H](C)O1 [Doxorubicin, doxorubicin] | 77% | 72.9% | 78.59% and 77.13% | 70.75% and 73.82% | – | – | – | – | – | –
CC(=O)O[C@H]1C(=O)[C@@]2(C)[C@H]([C@H](OC(=O)c3ccccc3)[C@]3(O)C[C@H](OC(=O)[C@H](O)[C@@H](NC(=O)c4ccccc4)c4ccccc4)C(C)=C1C3(C)C)[C@]1(OC(C)=O)CO[C@@H]1C[C@@H]2O [Taxol, taxol] | – | – | – | – | 80.3% | 83.1% | 78.66% and 76.08% | 82.38% and 80.61% | 84.5% | 89.2%
